Reference: article PMC12257413, “Discovery of a Novel sp^3‑Rich M1 Positive Allosteric Modulators (PAMs) Chemotype via Scaffold Hopping” (ACS Medicinal Chemistry Letters, 2025)
≈ marks a conversion by molar mass, not a printed value. Like-named read-outs stand apart in the source and are kept apart here.

Tests used:
[1] = target: T1, human muscarinic receptor subtype 1 (M1) (Homo sapiens, UniProt P11229); experiment: Calcium mobilization assay in hM1-CHO cells, PAM activity with EC20 acetylcholine; type: cell-based; conditions: for EC50: read-out: hM1 pEC50 ± SEM (converted)
T1 sequence (P11229 1-460): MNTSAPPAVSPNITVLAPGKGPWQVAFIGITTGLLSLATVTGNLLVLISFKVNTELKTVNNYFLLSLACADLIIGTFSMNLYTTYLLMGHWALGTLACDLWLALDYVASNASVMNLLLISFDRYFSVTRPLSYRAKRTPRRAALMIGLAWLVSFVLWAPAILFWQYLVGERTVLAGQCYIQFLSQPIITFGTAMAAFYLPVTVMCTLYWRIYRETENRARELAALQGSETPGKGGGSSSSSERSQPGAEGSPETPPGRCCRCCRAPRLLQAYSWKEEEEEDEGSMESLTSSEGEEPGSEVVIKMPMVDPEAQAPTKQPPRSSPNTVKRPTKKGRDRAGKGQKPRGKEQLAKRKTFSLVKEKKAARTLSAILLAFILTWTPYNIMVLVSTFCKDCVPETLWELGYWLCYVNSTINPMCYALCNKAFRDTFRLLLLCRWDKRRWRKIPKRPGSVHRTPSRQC
Experimental: page 2: Procedures for Biological Experiments Calcium mobilization assays: To measure the functional activity of positive allosteric modulator (PAM) compounds in a cellular assay, human or rat muscarinic receptor subtype 1 (M1) was stably expressed in the Chinese hamster ovary (CHO) cells to evoke an increase in intracellular calcium to an EC20 concentration of acetylcholine (ACh) agonist. The stable M1-CHO cells were cultured in F12 medium containing 10% fetal bovine serum, 20 mM HEPES, 100 units/mL antibiotics/antimycotic, 0.5 mg/ml G418. All reagents used were from Life Technologies (Carlsbad, CA) unless otherwise noted. Briefly, the day before the assay, stable M1-CHO cells (15,000 cells/20 μL/well) were plated in black-walled, clear-bottomed, 384 well plates (Greiner Bio-One, Monroe, NC) in the culture medium without G418, and then incubated overnight at 37 °C in the presence of 5% CO2. The next day, calcium assay buffer (Hank’s balanced salt solution (HBSS), 20 mM HEPES, 2.5 mM Probenecid, 4.16 mM sodium bicarbonate (Sigma-Aldrich, St. Louis, MO) was prepared to dilute […] calcium indicator dye. […] curves in DMSO using the Bravo Liquid Handler (Agilent, Santa Clara, CA), transferred to a 384 well daughter plates using an Echo acoustic liquid handler (Beckman Coulter, Indianapolis, Indiana), and diluted in assay Buffer to a 2X final concentration. The agonist plates were prepared using acetylcholine (ACh, Sigma-Aldrich, St. Louis, MO) concentrations for the EC20 and ECMAX responses by diluting in assay buffer to a 5X final concentration. The 2X dye solution (2.3 µM) was prepared by mixing a 2.3 mM Fluo-4-AM stock in DMSO with 10% (w/v) pluronic acid F- 127 in a 1:1 ratio in assay buffer. Using a microplate washer (BioTek, Winooski, VT), cells were washed with assay buffer for 3 times to remove medium. After the final wash, 20 μL of assay buffer remained in the cell plates. Immediately, 20 μL of the 2X dye solution (final 1.15 µM) was added to each well of the cell plate using a Multidrop Combi dispenser (Thermo Fisher, Waltham, MA). After cells were incubated with the dye solutions for 45 min at 37 °C in the presence of 5% CO2, the dye solutions were removed and replaced with assay buffer using a microplate washer, leaving 20 μL of assay buffer in the cell plate. The compound, agonist, and cell plates were placed inside the Functional Drug Screening System uCell (FDSS uCell, Hamamatsu, Japan) to measure the calcium flux. The triple add protocol was used to measure Ca kinetics; Compound, ACh for EC20, and ACh for ECMAX adds in an order. Briefly, after establishment of a fluorescence baseline S2 page 3: for 2 seconds (excitation, 480 nm; emission, 530 nm), first add occurred by adding 20 µL of test compound to the cells, and the response was measured for 140 seconds. This is followed by second add; 10 µL (5X) of an EC20 concentration of ACh agonist was added to the cells, and the response of the cells was measured for 125 seconds. Immediately, the third add occurred by adding 12 ul assay buffer or 5X of an EC max concentration of ACh and the response of the cells was measured for 90 seconds. Assay buffer was added to the wells that incubated with compounds followed by EC20 concentration of ACh. Agonists containing ECmax concentration of ACh were added to the wells that incubated with DMSO and assay buffer from the 1st and 2nd adds to measure maximum Ca responses (ECmax). Calcium fluorescence was recorded as fold over basal fluorescence and raw data were normalized to the maximal response to ACh agonist. […]

Aqueous solubility = type: physicochemical; conditions: aqueous solution, aqueous buffer
[2] = Brain homogenate binding by equilibrium dialysis; type: in vitro ADME; conditions: fraction unbound in rat brain homogenate
Experimental: A similar approach was used to determine the degree of brain homogenate binding, which employed the same methodology and procedure with the following modifications: 1) a final compound concentration of 1 μM was used, 2) naïve rat brains were homogenized in DPBS (1:3 composition of brain: DPBS, w/w) using a Mini-Bead Beater™ machine in order to obtain brain homogenate, which was then treated in the same manner as the plasma samples in the previously described plasma protein binding assay. […]
same manner as the plasma samples in the previously described plasma protein binding assay. Fraction unbound for both plasma and brain samples was determined using Equation 4.
Equation 4 Determination of fraction unbound in plasma.
The diluted fraction unbound (fu2) in brain was calculated in the same manner by using brain homogenate rather than plasma. Undiluted fraction unbound for the brain was calculated using Equation 5 […]
Equation 5 Determination of fraction unbound in brain. […]
Human or rat hepatic microsomes (0.5 mg/mL) and 1 µM test compound were incubated in 100 mM potassium phosphate pH 7.4 buffer with 3 mM MgCl 2 at 37 °C with constant shaking. […] The in vitro half-life (1/2, min, Eq. 1), intrinsic clearance (CL int, mL/min/kg, Eq. 2), and subsequent predicted hepatic clearance (CLhep, mL/min/kg, Eq. 3) was determined employing the following equations: […]

[3] = pH 2.2, read-out: Solubility pH = 2.2
[4] = pH 6.8, read-out: Solubility pH = 6.8

Row | Compound | hM1 %ACh Max ± SEM [1] | EC50 [1] | solubility (Aqueous solubility; [3]) | solubility (Aqueous solubility; [4]) | Rat fubrain [2]
1 | Cn1cc(-c2ccc(Cc3cc(C(=O)N[C@H]4CCCC[C@@H]4O)nn3C3CCCC3)cc2)cn1 [17k] | 82 ± 4.4 %ACh Max | 589 nM | 10.8 µM (≈ 4.83 µg/mL) | < 1.12 µM | 0.01
2 | Cn1cc(-c2ccc(Cc3cc(C(=O)N[C@H]4CCOC[C@@H]4O)nn3C3CCCC3)cc2)cn1 [17g] | 82 ± 3.4 %ACh Max | 427 nM | 84.6 µM (≈ 38 µg/mL) | 80.7 µM (≈ 36.3 µg/mL) | 0.08
